# Test results: PubChem BioAssay (NCI)
#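 GI50: concentration for 50% inhibition of growth. Definition used: TGI = concentration required for complete inhibition of growth.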
# Columns and labels:
# Test in all cases: NCI-60 cell line screen, 384-well format
# [1] = tested on: HCC-2998 colon
# [2] = tested on: OVCAR-8 ovarian
# [3] = tested on: A549 NSCLC
# [4] = tested on: MCF7 breast
# [5] = tested on: SF-268 CNS
# [6] = tested on: SK-MEL-28 melanoma
# [7] = tested on: IGROV1 ovarian
# [8] = tested on: SN12C renal
# [9] = tested on: OVCAR-5 ovarian
# [10] = tested on: NCI-H322M lung
# [11] = tested on: TK-10 renal
# [12] = tested on: OVCAR-4 ovarian
# [13] = tested on: LOX IMVI melanoma
# [14] = tested on: PC-3 prostate
# [15] = tested on: MALME-3M melanoma
# [16] = tested on: MOLT-4 leukemia
# [17] = tested on: SNB-19 CNS
# [18] = tested on: NCI-H460 NSCLC
# [19] = tested on: CCRF-CEM leukemia
# [20] = tested on: NCI-H23 lung
# [21] = tested on: UACC-257 melanoma
# [22] = tested on: HS 578T breast
# [23] = tested on: MDA-MB-231 breast
# [24] = tested on: SW-620 colon
# [25] = tested on: 786-0 renal
# [26] = tested on: RPMI-8226 leukemia
# [27] = tested on: SF-539 CNS
# [28] = tested on: OVCAR-3 ovarian
# [29] = tested on: SK-MEL-5 melanoma
# [30] = tested on: NCI-H522 lung
# [31] = tested on: RXF 393 renal
# [32] = tested on: EKVX NSCLC
# [33] = tested on: A498 renal
# [34] = tested on: COLO 205 colon
# [35] = tested on: HCT-15 colon
# [36] = tested on: HL-60(TB) leukemia
# [37] = tested on: M14 melanoma
# [38] = tested on: SK-OV-3 ovarian
# [39] = tested on: T-47D breast
# [40] = tested on: SNB-75 CNS
# [41] = tested on: SR leukemia
# [42] = tested on: CAKI-1 renal
# [43] = tested on: K-562 leukemia
# [44] = tested on: MDA-MB-468 breast
# [45] = tested on: HOP-92 NSCLC
# [46] = tested on: BT-549 breast
# [47] = tested on: NCI-H226 lung
# [48] = tested on: DU-145 prostate
# [49] = tested on: NCI/ADR-RES ovarian
# [50] = tested on: MDA-MB-435 melanoma
# [51] = tested on: KM12 colon
# [52] = tested on: UACC-62 melanoma
# [53] = tested on: UO-31 renal
# [54] = tested on: SF-295 CNS
# [55] = tested on: ACHN renal
# [56] = tested on: HOP-62 NSCLC
# [57] = tested on: HT29 colon
smiles,measurement,setting,value
CN1CCN(C(=O)COc2ccc(C34CC5CC(CC(C5)C3)C4)cc2)CC1,GI50,[1],1.56 µM
same,TGI,[1],3.11 µM
same,GI50,[2],10.3 µM
same,TGI,[2],22.1 µM
same,GI50,[3],5.49 µM
same,TGI,[3],17.8 µM
same,GI50,[4],2.08 µM
same,TGI,[4],6.06 µM
same,GI50,[5],4.74 µM
same,TGI,[5],16.2 µM
same,GI50,[6],1.74 µM
same,TGI,[6],3.19 µM
same,GI50,[7],12.7 µM
same,TGI,[7],25.3 µM
same,GI50,[8],11.8 µM
same,TGI,[8],24.2 µM
same,GI50,[9],5.11 µM
same,TGI,[9],16.6 µM
same,GI50,[10],3.81 µM
same,TGI,[10],13.5 µM
same,GI50,[11],9.41 µM
same,TGI,[11],21.3 µM
same,GI50,[12],8.56 µM
same,TGI,[12],20.7 µM
same,GI50,[13],2.31 µM
same,TGI,[13],5.31 µM
same,GI50,[14],8.05 µM
same,TGI,[14],20.6 µM
same,GI50,[15],1.7 µM
same,TGI,[15],3.19 µM
same,GI50,[16],1.79 µM
same,TGI,[16],4.27 µM
same,GI50,[17],10.5 µM
same,TGI,[17],22.3 µM
same,GI50,[18],2.48 µM
same,TGI,[18],5.79 µM
same,GI50,[19],2.03 µM
same,TGI,[19],4.43 µM
same,GI50,[20],4.5 µM
same,TGI,[20],15.9 µM
same,GI50,[21],2.19 µM
same,TGI,[21],4.32 µM
same,GI50,[22],3.17 µM
same,TGI,[22],10.6 µM
same,GI50,[23],6.09 µM
same,TGI,[23],18.5 µM
same,GI50,[24],1.78 µM
same,TGI,[24],3.31 µM
same,GI50,[25],1.74 µM
same,TGI,[25],3.24 µM
same,GI50,[26],1.7 µM
same,TGI,[26],3.22 µM
same,GI50,[27],3.98 µM
same,TGI,[27],13.8 µM
same,GI50,[28],7.07 µM
same,TGI,[28],19.7 µM
same,GI50,[29],1.85 µM
same,TGI,[29],3.37 µM
same,GI50,[30],8.25 µM
same,TGI,[30],20.5 µM
same,GI50,[31],1.85 µM
same,TGI,[31],4.12 µM
same,GI50,[32],11.4 µM
same,TGI,[32],23.6 µM
same,GI50,[33],1.62 µM
same,TGI,[33],3.12 µM
same,GI50,[34],1.79 µM
same,TGI,[34],3.21 µM
same,GI50,[35],1.84 µM
same,TGI,[35],3.37 µM
same,GI50,[36],1.8 µM
same,TGI,[36],3.21 µM
same,GI50,[37],1.87 µM
same,TGI,[37],3.41 µM
same,GI50,[38],7.12 µM
same,TGI,[38],19.8 µM
same,GI50,[39],2.66 µM
same,TGI,[39],10.6 µM
same,GI50,[40],11.9 µM
same,TGI,[40],24.3 µM
same,GI50,[41],1.68 µM
same,TGI,[41],3.08 µM
same,GI50,[42],2.22 µM
same,TGI,[42],4.56 µM
same,GI50,[43],1.64 µM
same,TGI,[43],3.17 µM
same,GI50,[44],1.93 µM
same,TGI,[44],3.7 µM
same,GI50,[45],3.58 µM
same,TGI,[45],15.7 µM
same,GI50,[46],3.48 µM
same,TGI,[46],16 µM
same,GI50,[47],6.3 µM
same,TGI,[47],19.3 µM
same,GI50,[48],12.1 µM
same,TGI,[48],24.6 µM
same,GI50,[49],7.51 µM
same,TGI,[49],20.1 µM
same,GI50,[50],3.94 µM
same,TGI,[50],13.4 µM
same,GI50,[51],2.18 µM
same,TGI,[51],4.77 µM
same,GI50,[52],1.81 µM
same,TGI,[52],3.32 µM
same,GI50,[53],11.3 µM
same,TGI,[53],23.9 µM
same,GI50,[54],2.85 µM
same,TGI,[54],8.18 µM
same,GI50,[55],7.11 µM
same,TGI,[55],19.6 µM
same,GI50,[56],4.84 µM
same,TGI,[56],16.5 µM
same,GI50,[57],1.72 µM
same,TGI,[57],3.31 µM
